Test results reported in patent publication US8501755B2, “Tetrahydropyridothienopyrimidine compounds and methods of use thereof” (Bayer Intellectual Property GmbH, priority 2006, dated 2013).

Columns and labels:
Type in all cases: cell-based
[1] = system: A431 cells; assay: In vitro tumor cell proliferation assay (Cell Titer-Glo) in A431 cells; details: Homo sapiens, A-431, 72 h, A431 human epidermoid carcinoma overexpressing HER1; 72 hours exposure; read-out: IC50, activities in A431 cell lines
Outline: (§1)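 Viability after 72 h drug exposure at 37 °C was read as CellTiter-Glo ATP luminescence, giving IC50. Cells (2.5×10^3/well, RPMI + 10% FBS) were compound-treated one day post-seeding, 0.1% DMSO final: A431 overexpresses HER1, N87 overexpresses HER2 and HER1.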

[2] = system: N87; assay: In vitro tumor cell proliferation assay (Cell Titer-Glo) in N87 cells; details: N87 human gastric carcinoma overexpressing HER2 and HER1; 72 hours exposure; read-out: IC50, activities in N87 cell lines
Outline: as §1

[3] = system: H1975 cells; assay: In vitro tumor cell proliferation assay (Cell Titer-Glo) in H1975 cells; details: NCI-H1975; H1975 human NSCLC expressing mutant HER1 (L858R,T790M); 72 hours exposure; read-out: IC50, activities in H 1975 cell lines
Outline: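 After 72 h compound exposure at 37° C (top 10 uM down to 64 pM, 0.1% DMSO), viability of EGFR L858R/T790M-mutant H1975 cells was read as ATP luminescence.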

Row | IC50 [1] | IC50 [2] | IC50 [3] | Compound
1 | 1000 to 10000 nM | < 200 nM | 1000 to 10000 nM | Cc1cccc(COc2ccc(Nc3ncnc4sc5c(c34)CCN(C(=O)/C=C/CN3CCCC3)C5)cc2Cl)n1 [Example 78, N-{3-chloro-4-[(6-methylpyridin-2-yl)methoxy]phenyl}-7-[(2E)-4-pyrrolidin-1-ylbut-2-enoyl]-5,6,7,8-tetrahydropyrido [4′,3′:4,5]thieno[2,3-d]pyrimidin-4-amine]
2 | 1000 to 10000 nM | < 200 nM | 1000 to 10000 nM | O=C(/C=C/CN1CCOCC1)N1CCc2c(sc3ncnc(Nc4ccc(OCc5cnccn5)c(Cl)c4)c23)C1 [Example 80, N-[3-chloro-4-(pyrazin-2-ylmethoxy)phenyl]-7-[(2E)-4-morpholin-4-ylbut-2-enoyl]-5,6,7,8-tetrahydropyrido [4′3′:4,5]thieno[2,3-d]pyrimidin-4-amine]
3 | 1000 to 10000 nM | < 200 nM | 200 to 1000 nM | CCN(C)C/C=C/C(=O)N1CCc2c(sc3ncnc(Nc4ccc(OCc5cnccn5)c(Cl)c4)c23)C1 [Example 81, N-[3-chloro-4-(pyrazin-2-ylmethoxy)phenyl]-7-{(2E)-4-[ethyl(methyl)amino]but-2-enoyl}-5,6,7,8-tetrahydropyrido [4′,3′:4,5]thieno[2,3-d]pyrimidin-4-amine]
4 | 1000 to 10000 nM | < 200 nM | 200 to 1000 nM | CC(C)N(C)C/C=C/C(=O)N1CCc2c(sc3ncnc(Nc4ccc(OCc5cnccn5)c(Cl)c4)c23)C1 [Example 82, N-[3-chloro-4-(pyrazin-2-ylmethoxy)phenyl]-7-{(2E)-4-[isopropyl(methyl)amino]but-2-enoyl}-5,6,7,8-tetrahydropyrido [4′3′:4,5]thieno[2,3-d]pyrimidin-4-amine]
5 | 1000 to 10000 nM | < 200 nM | 200 to 1000 nM | O=C(/C=C/CN1CCCC1)N1CCc2c(sc3ncnc(Nc4ccc(OCc5cnccn5)c(Cl)c4)c23)C1 [Example 83, N-[3-chloro-4-(pyrazin-2-ylmethoxy)phenyl]-7-[(2E)-4-pyrrolidin-1-ylbut-2-enoyl]-5,6,7,8-tetrahydropyrido [4′3′:4,5]thieno[2,3-d]pyrimidin-4-amine]
6 | 1000 to 10000 nM | < 200 nM | 1000 to 10000 nM | Cc1cccc(COc2ccc(Nc3ncnc4sc5c(c34)CCN(C(=O)/C=C/CN3CCOCC3)C5)cc2Cl)n1 [Example 84, N-{3-chloro-4-[(6-methylpyridin-2-yl)methoxy]phenyl}-7-[(2E)-4-morpholin-4-ylbut-2-enoyl]-5,6,7,8-tetrahydropyrido [4′,3′:4,5]thieno[2,3-d]pyrimidin-4-amine]
7 | 200 to 1000 nM | < 200 nM | 200 to 1000 nM | CN(C)C/C=C/C(=O)N1CCc2c(sc3ncnc(Nc4ccc(OCc5cnccn5)c(Cl)c4)c23)C1 [Example 85, N-[3-chloro-4-(pyrazin-2-ylmethoxy)phenyl]-7-[(2E)-4-(dimethylamino)but-2-enoyl]-5,6,7,8-tetrahydropyrido [4′,3′:4,5]thieno[2,3-d]pyrimidin-4-amine]
8 | 1000 to 10000 nM | < 200 nM | 200 to 1000 nM | CCN(CC)C/C=C/C(=O)N1CCc2c(sc3ncnc(Nc4ccc(OCc5cccnc5)c(Cl)c4)c23)C1 [Example 86, N-[3-chloro-4-(pyridin-3-ylmethoxy)phenyl]-7-[(2E)-4-(diethylamino)but-2-enoyl]-5,6,7,8-tetrahydropyrido [4′,3′:4,5]thieno[2,3-d]pyrimidin-4-amine]
9 | 200 to 1000 nM | < 200 nM | 200 to 1000 nM | CN(C)C/C=C/C(=O)N1CCc2c(sc3ncnc(Nc4ccc(OCc5cccnc5)c(Cl)c4)c23)C1 [Example 87, N-[3-chloro-4-(pyridin-3-ylmethoxy)phenyl]-7-[(2E)-4-(dimethylamino)but-2-enoyl]-5,6,7,8-tetrahydropyrido [4′,3′:4,5]thieno[2,3-d]pyrimidin-4-amine]
10 | 1000 to 10000 nM | < 200 nM | 200 to 1000 nM | O=C(/C=C/CN1CCCCC1)N1CCc2c(sc3ncnc(Nc4ccc(OCc5cccnc5)c(Cl)c4)c23)C1 [Example 88, N-[3-chloro-4-(pyridin-3-ylmethoxy)phenyl]-7-[(2E)-4-piperidin-1-ylbut-2-enoyl]-5,6,7,8-tetrahydropyrido [4′3′:4,5]thieno[2,3-d]pyrimidin-4-amine]
11 | 1000 to 10000 nM | < 200 nM | 200 to 1000 nM | O=C(/C=C/CN1CCOCC1)N1CCc2c(sc3ncnc(Nc4ccc(OCc5cccnc5)c(Cl)c4)c23)C1 [Example 89, N-[3-chloro-4-(pyridin-3-ylmethoxy)phenyI]-7-[(2E)-4-morpholin-4-ylbut-2-enoyl]-5,6,7,8-tetrahydropyrido [4′,3′:4,5]thieno[2,3-d]pyrimidin-4-amine]
12 | 1000 to 10000 nM | < 200 nM | 200 to 1000 nM | CCN(C)C/C=C/C(=O)N1CCc2c(sc3ncnc(Nc4ccc(OCc5cccnc5)c(Cl)c4)c23)C1 [Example 90, N-[3-chloro-4-(pyridin-3-ylmethoxy)phenyl]-7-{(2E)-4-[ethyl(methyl)amino]but-2-enoyl}-5,6,7,8-tetrahydropyrido [4′,3′:4,5]thieno[2,3-d]pyrimidin-4-amine]
13 | 1000 to 10000 nM | < 200 nM | 200 to 1000 nM | CC(C)N(C)C/C=C/C(=O)N1CCc2c(sc3ncnc(Nc4ccc(OCc5cccnc5)c(Cl)c4)c23)C1 [Example 91, N-[3-chloro-4-(pyridin-3-ylmethoxy)phenyl]-7-{(2E)-4-[isopropyl(methyl)amino]but-2-enoyl}-5,6,7,8-tetrahydropyrido [4′,3′:4,5]thieno[2,3-d]pyrimidin-4-amine]
14 | < 200 nM | < 200 nM | < 200 nM | CN(C)C/C=C/C(=O)N1CCc2c(sc3ncnc(Nc4ccc5c(cnn5Cc5cccc(F)c5)c4)c23)C1 [Example 92, 7-[(2E)-4-(dimethylamino)but-2-enoyl]-N-[1-(3-fluorobenzyl)-1H-indazol-5-yl]-5,6,7,8-tetrahydropyrido [4′,3′:4,5]thieno[2,3-d]pyrimidin-4-amine]
15 | 200 to 1000 nM | < 200 nM | < 200 nM | CN(C)C/C=C/C(=O)N1CCc2c(sc3ncnc(Nc4ccc5c(ccn5Cc5ccccc5)c4)c23)C1 [Example 93, N-(1-benzyl-1H-indol-5-yl)-7-[(2E)-4-(dimethylamino)but-2-enoyl]-5,6,7,8-tetrahydropyrido [4′,3′:4,5]thieno[2,3-d]pyrimidin-4-amine]
16 | 200 to 1000 nM | < 200 nM | 200 to 1000 nM | CCN(CC)C/C=C/C(=O)N1CCc2c(sc3ncnc(Nc4ccc5c(ccn5Cc5ccccc5)c4)c23)C1 [Example 94, N-(1-benzyl-1H-indol-5-yl)-7-[(2E)-4-(diethylamino)but-2-enoyl]-5,6,7,8-tetrahydropyrido [4′,3′:4,5]thieno[2,3-d]pyrimidin-4-amine]
17 | 200 to 1000 nM | < 200 nM | 200 to 1000 nM | CCN(CC)C/C=C/C(=O)N1CCc2c(sc3ncnc(Nc4ccc5c(cnn5Cc5ccccc5)c4)c23)C1 [Example 95, N-(1-benzyl-1H-indazol-5-yl)-7-[(2E)-4-(diethylamino)but-2-enoyl]-5,6,7,8-tetrahydropyrido [4′,3′:4,5]thieno[2,3-d]pyrimidin-4-amine]
18 | 1000 to 10000 nM | < 200 nM | 200 to 1000 nM | O=C(/C=C/CN1CCCCC1)N1CCc2c(sc3ncnc(Nc4ccc5c(ccn5Cc5ccccc5)c4)c23)C1 [Example 96, N-(1-benzyl-1H-indol-5-yl)-7-[(2E)-4-piperidin-1-ylbut-2-enoyl]-5,6,7,8-tetrahydropyrido [4′,3′:4,5]thieno[2,3-d]pyrimidin-4-amine]
19 | 200 to 1000 nM | < 200 nM | 200 to 1000 nM | CN(C)C/C=C/C(=O)N1CCc2c(sc3ncnc(Nc4ccc5c(cnn5Cc5ccccc5)c4)c23)C1 [Example 97, N-(1-benzyl-1H-indazol-5-yl)-7-[(2E)-4-(dimethylamino)but-2-enoyl]-5,6,7,8-tetrahydropyrido [4′,3′:4,5]thieno[2,3-d]pyrimidin-4-amine]
20 | 200 to 1000 nM | < 200 nM | < 200 nM | CN(C)C/C=C/C(=O)N1CCc2c(sc3ncnc(Nc4ccc5c(ccn5Cc5cccc(F)c5)c4)c23)C1 [Example 98, 7-[(2E)-4-(dimethylamino)but-2-enoyl]-N-[1-(3-fluorobenzyl)-1H-indol-5-yl]-5,6,7,8-tetrahydropyrido [4′,3′:4,5]thieno[2,3-d]pyrimidin-4-amine]
21 | 200 to 1000 nM | < 200 nM | 200 to 1000 nM | CCN(CC)C/C=C/C(=O)N1CCc2c(sc3ncnc(Nc4ccc5c(cnn5Cc5cccc(F)c5)c4)c23)C1 [Example 99, 7-[(2E)-4-(diethylamino)but-2-enoyl]-N-[1-(3-fluorobenzyl)-1H-indazol-5-yl]5,6,7,8-tetrahydropyrido [4′,3′:4,5]thieno[2,3-d]pyrimidin-4-amine]
22 | 200 to 1000 nM | < 200 nM | 200 to 1000 nM | CCN(CC)C/C=C/C(=O)N1CCc2c(sc3ncnc(Nc4ccc5c(ccn5Cc5cccc(F)c5)c4)c23)C1 [Example 100, 7-[(2E)-4-(diethylamino)but-2-enoyl]-N-[1-(3-fluorobenzyl)-1H-indol-5-yl]-5,6,7,8-tetrahydropyrido [4′,3′:4,5]thieno[2,3-d]pyrimidin-4-amine]
23 | 200 to 1000 nM | < 200 nM | 200 to 1000 nM | O=C(/C=C/CN1CCCCC1)N1CCc2c(sc3ncnc(Nc4ccc5c(cnn5Cc5cccc(F)c5)c4)c23)C1 [Example 101]
